Measurements published in patent US7182950B2, “Nano-sized self-assembled liquid dilutable vehicles” (Nutralease Ltd., priority 2002, dated 2007).
Values belong to the compound of their own block, whether it stands above or below them.

Assays:
[1] = assay type: physicochemical
Description: The invention will now be described with reference to some non-limiting specific embodiments. The invention will first be illustrated in reference to the attached drawings to be followed by a more detailed description below. Turning to FIG. 1, there are shown two different phase diagrams (1A and 1B) of ternary systems comprising oil/water/surfactant according to the prior art. Such a ternary system forms microemulsions. As a function of the relative amounts of each of the three components one may achieve a two-phase or a mono-phase liquid concentrate comprising of the microemulsion where the boundaries of the stable phases depend on the relative concentration of each component. […] A two-phase region at equilibrium, at 35, prevails at all other concentrations of the ternary system. […] A one phase stable isotropic region exists at 65. Turning to FIG. 2, a general ternary phase diagram 80 describing the nano-sized self-assembled structured concentrates of the present invention, A rather small two-phase concentrate region 90 and a large stable one-phase at 100 region are present. A micellar concentrate of the nano-sized self-assembled structures exists at 110, i.e. there is no aqueous phase. Adding a small amount of aqueous phase results in an oil continuous phase, which is actually water in oil (W/O) region at 120A, 120B and 120C along the tree dilution lines. Addition of an increasing amount of aqueous solution results in a bi-continuous region at 130A, 130B and 130C along the three dilution lines. At the point where the amount of aqueous solution is greater than that of the oil phase there exists an aqueous continuous phase, which is actually an oil in water (O/W) region generally at 140A, 140B and 140C along the three dilution lines. Direct micelles exist only at the extreme at 150. It should be noted that along each concentration line as the concentration of the surfactant increases, the oil continuous phase may decrease is size while the bicontinuous and water continuous phases may increase in size. Turning to FIG. 3, a ternary phase diagram 170 describing another nanosized-structured concentrate of the present invention is shown. The oil phase, which is the desired solvent for achieving a single-phase system, is α-tocopherol acetate. The aqueous system comprises of water and a co-solvent—propylene glycol. As shown, a major portion of the four-component system is in one stable region 180, while only a minor portion 190 is a two-phase system. Phase diagrams, solubilization factors and efficiency of solubilization for lycopene, phytosterol and lutein in ternary systems according to lo the present invention are given in FIGS. 4–6. […] It should be noted that the ratio between each of the components of the oil phase to the surfactant is 1:3. […] As shown, upon further dilution with water, tie solubilization of lycopene drops over the dilution factor. In case the system is diluted from 67% water to 80% water, the dilution factor (from inversion) is 80/67=1.19. The solubilization on the other hand decreases by a factor of 450/312.5=1.44. This indicates structural change in the nano-sized self-assembled concentrates. Turning to FIG. 4C, the efficiency of the solubilization in the described system is represented (α). The efficiency factor, α, is defined as lycopene/oil(wt/wt)X 100. As shown, the maximum solubilization on an oil base is 0.8 wt %. […] Tuming to FIG. 4D, there is shown the solubilization capacity of the lycopene as a function of the nature of the surfactant system. As shown, for the case where the surfactant is Tween 60, the efficiency factor (solubilization based on the oil phase) is 0.8 wt %. However, this value is increased to 1.05, 1.1, 1.1 and 1.16 (wt %) for the cases where the surfactant is ethoxylated monoglycerides (EM), triglycerol monooleate (TM), sugar ester (SE), and a mixture of SE+EM, respectively. It should be noted that such efficiency factors are equivalent to a solubilization factor of up to 25 fold. […]

[2] = Solubility of lycopene in oil (oil dissolution capacity); assay type: physicochemical
Description: The invention will now be described with reference to some non-limiting specific embodiments. The invention will first be illustrated in reference to the attached drawings to be followed by a more detailed description below. Turning to FIG. 1, there are shown two different phase diagrams (1A and 1B) of ternary systems comprising oil/water/surfactant according to the prior art. Such a ternary system forms microemulsions. As a function of the relative amounts of each of the three components one may achieve a two-phase or a mono-phase liquid concentrate comprising of the microemulsion where the boundaries of the stable phases depend on the relative concentration of each component. […] A two-phase region at equilibrium, at 35, prevails at all other concentrations of the ternary system. […] A one phase stable isotropic region exists at 65. Turning to FIG. 2, a general ternary phase diagram 80 describing the nano-sized self-assembled structured concentrates of the present invention, A rather small two-phase concentrate region 90 and a large stable one-phase at 100 region are present. A micellar concentrate of the nano-sized self-assembled structures exists at 110, i.e. there is no aqueous phase. Adding a small amount of aqueous phase results in an oil continuous phase, which is actually water in oil (W/O) region at 120A, 120B and 120C along the tree dilution lines. […]

Concentration (%) of free lutein [1]: 0.006%
Compound: CC1=C[C@H](O)CC(C)(C)[C@H]1/C=C/C(C)=C/C=C/C(C)=C/C=C/C=C(C)/C=C/C=C(C)/C=C/C1=C(C)C[C@@H](O)CC1(C)C [free lutein]

Aqueous solution concentration at which maximum solubilization occurs (bi continuous region) [1]: 40 to 60%
Increase of solubilization capacity over aqueous or oil phase alone or with surfactant [1]: 7-20 fold
Solubilization in the oil in water (O/W) region [1]: limited solubilization
Compound: CC1=C[C@H](O)CC(C)(C)[C@H]1/C=C/C(C)=C/C=C/C(C)=C/C=C/C=C(C)/C=C/C=C(C)/C=C/C1=C(C)C[C@@H](O)CC1(C)C [lutein]

Concentration (%) of lycopene [1]: 0.02%
Efficiency factor α, lycopene/oil (wt/wt) x 100, maximum solubilization on an oil base [1]: 0.8 wt %
Factor of decrease of solubilization on dilution [1]: 1.44
Increase of solubilization capacity over aqueous or oil phase alone or with surfactant [1]: 7-20 fold
Maximum solubility (solubility capacity) in 1 Kg of nano-sized self-assembled structured concentrate [1]: 450 mg
Maximum solubilization [1]: 0.45 % (wt)
Solubility capacity in 1 Kg of concentrate after dilution [1]: 312.5 mg
Solubilization factor [1]: up to 25 fold
Solubilization relative to the oil dissolution capacity [1]: up to 17.7 fold
Solubility of lycopene in oil [2]: ca. 0.045 wt %
Compound: CC(C)=CCC/C(C)=C/C=C/C(C)=C/C=C/C(C)=C/C=C/C=C(C)/C=C/C=C(C)/C=C/C=C(\C)CCC=C(C)C [lycopene]

Concentration (%) of lutein ester [1]: 0.047%
Compound: lutein ester

Concentration (%) of phytosterol [1]: 1.0%
Efficiency factor α, phytosterol/oil (wt/wt) x 100, maximum solubilization on an oil base [1]: 16.7 wt %
Increase of solubilization capacity over aqueous or oil phase alone or with surfactant [1]: 7-20 fold
Maximum solubilization [1]: 1.65 % (wt)
Maximum solubilization in 1 Kg of nano-sized self-assembled structured concentrate [1]: 165 mg
Solubilization decrease factor on dilution [1]: 3.6
Solubilization factors [1]: 6, 7
Solubilization in 1 Kg of concentrate after dilution [1]: 45 mg
Compound: phytosterol
